What was measured:
STAT5 phosphorylation = assay: Cell washout experiment, IL-15-stimulated CTLL-2 cells; type: cell-based, Mouse; details: CTLL-2, 2 h treatment, washed three times, IL-15 30 min
Protocol: The washout procedures are as follows: CTLL-2 cells were treated with compounds for 2 hours. Then, for washout groups, cells were washed three times with PBS. The non-washout groups were kept constant. Cells were then stimulated with IL-15 for 30 min, lysed, and subjected to standard Western blot. Cells, treated with compounds, were extensively washed with PBS.

[1] = test system: IL-2-induced STAT5 phosphorylation; assay: IL-2-induced STAT5 phosphorylation in PBMC (Western blot)
IL-6 release = assay: LPS-induced IL-6 release assay in PBMCs (ELISA); type: cell-based, human; details: LPS-challenged PBMCs, 24 h
Protocol: (§1) The LPS-induced IL-6 and TNF-α release assay was carried out as follows: frozen PBMCs (from Allcells) were thawed in RPMI1640 (Thermo Fisher) containing 10% FBS and recovered overnight at 37° C. The next day, cells were diluted to 1×10^6 cells/mL and seeded (500 μL) in 6-well plates. Compounds or DMSO (5 μL, serially diluted in DMSO) were added to the plates and incubated with cells for 2 h at 37° C., followed by stimulation with LPS (5 μL, 1 μg/mL) and incubation for 24 h at 37° C. in 5% CO2. Supernatants were collected for determination of IL-6 and TNF-α levels using human IL-6 or human THF-α DuoSet ELISA Kits (R&D Systems) according to the manufacturer's instructions.

GSK3β = GSK3β (Homo sapiens, UniProt P49841); assay: Selectivity assay against a panel of kinases: GSK3β; type: biochemical; details: tested at 1 μM
Chain of GSK3β (P49841 whole entry, species assumed): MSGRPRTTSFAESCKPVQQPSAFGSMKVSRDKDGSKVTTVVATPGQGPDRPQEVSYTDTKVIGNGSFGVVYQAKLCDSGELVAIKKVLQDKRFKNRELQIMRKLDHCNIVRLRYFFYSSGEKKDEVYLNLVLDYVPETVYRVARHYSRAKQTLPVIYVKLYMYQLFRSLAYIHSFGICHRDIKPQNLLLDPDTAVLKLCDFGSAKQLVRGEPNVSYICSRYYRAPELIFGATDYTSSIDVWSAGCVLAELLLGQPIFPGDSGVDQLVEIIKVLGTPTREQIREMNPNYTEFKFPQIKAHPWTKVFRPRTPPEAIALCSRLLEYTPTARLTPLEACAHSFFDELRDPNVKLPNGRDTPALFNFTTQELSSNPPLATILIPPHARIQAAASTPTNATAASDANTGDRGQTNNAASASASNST

MCP-1 release = assay: IL-6 stimulated MCP-1 release assay; type: cell-based, human
Protocol: as §1
IL-6 stimulated inflammatory cytokine MCP-1 release assay was performed in a similar way.

[2] = test system: STAT1 phosphorylation (IFN-α signal pathway); assay: Cellular selectivity assay: IFN-α-stimulated STAT1 phosphorylation in PBMCs; type: cell-based, human; details: doses as high as 10 μM
PKCα = PKCα (Homo sapiens, UniProt P17252); assay: Selectivity assay against a panel of kinases: PKCα; type: biochemical; details: tested at 1 μM
[3] = test system: STAT3 phosphorylation (IL-6 signal pathway); assay: Cellular selectivity assay: IL-6-stimulated STAT3 phosphorylation in PBMCs; type: cell-based, human; details: IL-6, doses as high as 10 μM
[4] = test system: IL-15-induced STAT5 phosphorylation; assay: IL-15-induced STAT5 phosphorylation in PBMC (Western blot); type: cell-based, human
panel of kinases = details: tested at 1 μM
PKCγ = PKCγ (Homo sapiens, UniProt P05129); assay: Selectivity assay against a panel of kinases: PKCγ; type: biochemical; details: tested at 1 μM
TNF-α release = assay: LPS-induced TNF-α release assay in PBMCs (ELISA); type: cell-based, human; details: LPS-challenged PBMCs, 24 h
Protocol: as §1

[5] = test system: phosphorylation of downstream substrates of JAKs; details: PBMCs; IL-15, IL-6, IFN-α

Row | Compound | inhibition of STAT5 phosphorylation after washing out with PBS (STAT5 phosphorylation) | inhibitory activity against IL-2-induced STAT5 phosphorylation compared with NIBR3049 [1] | effect on LPS-induced release of IL-6 (IL-6 release) | inhibition at 1 µM (GSK3β) | effect on IL-6-induced MCP-1 release (MCP-1 release) | inhibition of STAT1 phosphorylation [2] | inhibition at 1 µM (PKCα) | inhibition of STAT3 phosphorylation [3] | inhibitory activity against IL-15-induced STAT5 phosphorylation compared with NIBR3049 ([4]; PBMC) | concentration that effectively abrogated phosphorylation of STAT5 ([4]; PBMCs, IL-15 stimulation) | inhibition of most kinases of the panel (panel of kinases) | inhibition at 1 µM (PKCγ) | effect on LPS-induced release of TNF-α (TNF-α release) | cellular selectivity among JAKs (three cytokines) [5]
1 | CC(C)(O)C(=O)N1CCN(c2ccc(C(F)(F)F)c(C3=C(c4c[nH]c5ccccc45)C(=O)NC3=O)c2)CC1 [NIBR3049, reference compound] | almost lost after washing out | – | – | – | – | – | – | – | – | – | – | – | – | –
2 | C=CC(=O)N1CCN(c2ccc([N+](=O)[O-])c(C3=C(c4c[nH]c5ccccc45)C(=O)NC3=O)c2)CC1 [Compound 32, 3-(5-(4-acryloylpiperazin-1-yl)-2-(nitro)phenyl)-4-(1H-indol-3-yl)-1H-pyrrole-2,5-dione] | sustained inhibition of STAT5 phosphorylation | higher inhibitory activity | significantly inhibited | > 50% | did not inhibit | only partial inhibition | > 50% | only partial inhibition | higher inhibitory activity | 300 nM | no more than 50% | > 50% | significantly inhibited | –
3 | Tofacitinib [reference compound] | almost lost after washing out | – | increased cytokine production in different degrees | – | did not inhibit | – | – | – | – | – | – | – | increased cytokine production in different degrees | did not show obvious selectivity

— patent US11578060B2, “JAK3 selective inhibitor” (PEKING UNIVERSITY SHENZHEN GRADUATE SCHOOL, priority 2018, dated 2023)
